Measurements as given in PubChem BioAssay (NCI).
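Test compounds were applied to cells in 96-well plates for 48 hours at 5 doses. Here, GI50 denotes the concentration required for 50% inhibition of growth. At the TGI there is no net growth.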

Tests used:
Experiment in all cases: NCI tumour cell line growth inhibition, 48 h
BT-549 breast = system: BT-549 breast
HS 578T breast = system: HS 578T breast
A549 NSCLC = system: A549 NSCLC
SK-MEL-5 melanoma = system: SK-MEL-5 melanoma
HCT-15 colon = system: HCT-15 colon
SNB-19 CNS = system: SNB-19 CNS
SR leukemia = system: SR leukemia
OVCAR-4 ovarian = system: OVCAR-4 ovarian
PC-3 prostate = system: PC-3 prostate
MDA-MB-435 = system: MDA-MB-435
SF-268 CNS = system: SF-268 CNS
CAKI-1 renal = system: CAKI-1 renal
HOP-62 NSCLC = system: HOP-62 NSCLC
IGROV1 ovarian = system: IGROV1 ovarian
HOP-92 NSCLC = system: HOP-92 NSCLC
UACC-62 melanoma = system: UACC-62 melanoma
UO-31 renal = system: UO-31 renal
NCI-H522 lung = system: NCI-H522 lung
UACC-257 melanoma = system: UACC-257 melanoma
SF-295 CNS = system: SF-295 CNS
U251 CNS = system: U251 CNS
NCI-H226 lung = system: NCI-H226 lung
SK-MEL-2 melanoma = system: SK-MEL-2 melanoma
TK-10 renal = system: TK-10 renal
HCC-2998 colon = system: HCC-2998 colon
OVCAR-3 ovarian = system: OVCAR-3 ovarian
HCT-116 colon = system: HCT-116 colon
LOX IMVI melanoma = system: LOX IMVI melanoma
MDA-MB-231 breast = system: MDA-MB-231 breast
NCI-H23 lung = system: NCI-H23 lung
SK-MEL-28 melanoma = system: SK-MEL-28 melanoma
RPMI-8226 leukemia = system: RPMI-8226 leukemia
786-0 renal = system: 786-0 renal
SN12C renal = system: SN12C renal
CCRF-CEM leukemia = system: CCRF-CEM leukemia
COLO 205 colon = system: COLO 205 colon
OVCAR-8 ovarian = system: OVCAR-8 ovarian
MOLT-4 leukemia = system: MOLT-4 leukemia
KM12 colon = system: KM12 colon
SNB-75 CNS = system: SNB-75 CNS
HL-60(TB) leukemia = system: HL-60(TB) leukemia
RXF 393 renal = system: RXF 393 renal
OVCAR-5 ovarian = system: OVCAR-5 ovarian
SK-OV-3 ovarian = system: SK-OV-3 ovarian
M14 melanoma = system: M14 melanoma
EKVX NSCLC = system: EKVX NSCLC
A498 renal = system: A498 renal
NCI-H460 lung = system: NCI-H460 lung
ACHN renal = system: ACHN renal
K-562 leukemia = system: K-562 leukemia
MCF7 breast = system: MCF7 breast
SW-620 colon = system: SW-620 colon
MALME-3M melanoma = system: MALME-3M melanoma
HT29 colon = system: HT29 colon
DU-145 prostate = system: DU-145 prostate
NCI/ADR-RES ovarian = system: NCI/ADR-RES ovarian
SF-539 CNS = system: SF-539 CNS

With `CCC[C@H](Nc1nc(-c2ccc(NC(=O)NCC)c(OC)c2)ncc1C)c1cccnc1` the GI50 (BT-549 breast) was 41.3 nM, the TGI (BT-549 breast) was 26000 nM and the GI50 (HS 578T breast) was 34.5 nM. It also gave a GI50 (A549 NSCLC) of 37.8 nM, a TGI (A549 NSCLC) of over 36200 nM and a GI50 (SK-MEL-5 melanoma) of 27.3 nM. The TGI (SK-MEL-5 melanoma) was 91.2 nM, the GI50 (HCT-15 colon) was 112 nM and the TGI (HCT-15 colon) was over 42500 nM. It also gave a GI50 (SNB-19 CNS) of 44.1 nM, a TGI (SNB-19 CNS) of over 84800 nM and a GI50 (SR leukemia) of 30 nM. The TGI (SR leukemia) was 1710 nM, the GI50 (OVCAR-4 ovarian) was 69.1 nM and the TGI (OVCAR-4 ovarian) was 41800 nM. For the same molecule, the GI50 (PC-3 prostate) was 47 nM, the TGI (PC-3 prostate) was over 55600 nM and the GI50 (MDA-MB-435) was 21.9 nM. The TGI (MDA-MB-435) was 53.3 nM, the GI50 (SF-268 CNS) was 53.4 nM and the TGI (SF-268 CNS) was 14700 nM. For the same molecule, the GI50 (CAKI-1 renal) was 222 nM, the TGI (CAKI-1 renal) was 24000 nM and the GI50 (HOP-62 NSCLC) was 63.8 nM. For the same molecule, the TGI (HOP-62 NSCLC) was 39700 nM, the GI50 (IGROV1 ovarian) was 56.6 nM and the TGI (IGROV1 ovarian) was 24600 nM. For the same molecule, the GI50 (HOP-92 NSCLC) was 236 nM, the TGI (HOP-92 NSCLC) was 12500 nM and the GI50 (UACC-62 melanoma) was 57.2 nM. The TGI (UACC-62 melanoma) was over 48500 nM, the GI50 (UO-31 renal) was 277 nM and the TGI (UO-31 renal) was 17200 nM. The GI50 (NCI-H522 lung) was 34.5 nM, the TGI (NCI-H522 lung) was 868 nM and the GI50 (UACC-257 melanoma) was 820 nM. For the same molecule, the TGI (UACC-257 melanoma) was 28800 nM, the GI50 (SF-295 CNS) was 25.3 nM and the TGI (SF-295 CNS) was 67.8 nM. The GI50 (U251 CNS) was 39.5 nM, the TGI (U251 CNS) was 17700 nM and the GI50 (NCI-H226 lung) was 53.1 nM. The TGI (NCI-H226 lung) was 25700 nM, the GI50 (SK-MEL-2 melanoma) was 47.7 nM and the TGI (SK-MEL-2 melanoma) was 20700 nM. For the same molecule, the GI50 (TK-10 renal) was 14300 nM, the TGI (TK-10 renal) was 55100 nM and the GI50 (HCC-2998 colon) was 29.5 nM. The TGI (HCC-2998 colon) was 874 nM, the GI50 (OVCAR-3 ovarian) was 22.1 nM and the TGI (OVCAR-3 ovarian) was 49.2 nM. For the same molecule, the GI50 (HCT-116 colon) was 34.9 nM, the TGI (HCT-116 colon) was 10500 nM and the GI50 (LOX IMVI melanoma) was 41.5 nM. For the same molecule, the TGI (LOX IMVI melanoma) was 13800 nM, the GI50 (MDA-MB-231 breast) was 37.2 nM and the TGI (MDA-MB-231 breast) was 1720 nM. For the same molecule, the GI50 (NCI-H23 lung) was 44.4 nM, the TGI (NCI-H23 lung) was 6930 nM and the GI50 (SK-MEL-28 melanoma) was 1140 nM. It also gave a TGI (SK-MEL-28 melanoma) of over 61600 nM, a GI50 (RPMI-8226 leukemia) of 37 nM and a TGI (RPMI-8226 leukemia) of 15100 nM. For the same molecule, the GI50 (786-0 renal) was 45.3 nM, the TGI (786-0 renal) was 12600 nM and the GI50 (SN12C renal) was 48.6 nM. It also gave a TGI (SN12C renal) of 20500 nM, a GI50 (CCRF-CEM leukemia) of 32 nM and a GI50 (COLO 205 colon) of 28.2 nM. It also gave a TGI (COLO 205 colon) of 73.6 nM, a GI50 (OVCAR-8 ovarian) of 36.9 nM and a TGI (OVCAR-8 ovarian) of 14600 nM. For the same molecule, the GI50 (MOLT-4 leukemia) was 35.9 nM, the TGI (MOLT-4 leukemia) was 13100 nM and the GI50 (KM12 colon) was 33.7 nM. The TGI (KM12 colon) was 225 nM, the GI50 (SNB-75 CNS) was 48.9 nM and the TGI (SNB-75 CNS) was 22800 nM. It also gave a GI50 (HL-60(TB) leukemia) of 24.6 nM, a TGI (HL-60(TB) leukemia) of 58.2 nM and a GI50 (RXF 393 renal) of 41.5 nM. For the same molecule, the TGI (RXF 393 renal) was 20000 nM, the GI50 (OVCAR-5 ovarian) was 57.9 nM and the TGI (OVCAR-5 ovarian) was over 100000 nM. It also gave a GI50 (SK-OV-3 ovarian) of 36.5 nM, a TGI (SK-OV-3 ovarian) of 15000 nM and a GI50 (M14 melanoma) of 28.2 nM. For the same molecule, the TGI (M14 melanoma) was 82.4 nM, the GI50 (EKVX NSCLC) was 62.1 nM and the TGI (EKVX NSCLC) was over 100000 nM. For the same molecule, the GI50 (A498 renal) was 32.2 nM, the TGI (A498 renal) was 864 nM and the GI50 (NCI-H460 lung) was 35.7 nM. For the same molecule, the TGI (NCI-H460 lung) was 13300 nM, the GI50 (ACHN renal) was 72.1 nM and the TGI (ACHN renal) was 35200 nM. It also gave a GI50 (K-562 leukemia) of 31 nM, a TGI (K-562 leukemia) of 16400 nM and a GI50 (MCF7 breast) of 36.5 nM. It also gave a TGI (MCF7 breast) of 29600 nM, a GI50 (SW-620 colon) of 42.5 nM and a TGI (SW-620 colon) of over 88400 nM. For the same molecule, the GI50 (MALME-3M melanoma) was 13800 nM, the TGI (MALME-3M melanoma) was 49100 nM and the GI50 (HT29 colon) was 36.1 nM. It also gave a TGI (HT29 colon) of 16900 nM, a GI50 (DU-145 prostate) of 28 nM and a TGI (DU-145 prostate) of 75.3 nM. It also gave a GI50 (NCI/ADR-RES ovarian) of 214 nM, a TGI (NCI/ADR-RES ovarian) of 9970 nM and a GI50 (SF-539 CNS) of 33.4 nM. The TGI (SF-539 CNS) was 3870 nM.
